# PubChem BioAssay (NCI)
#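 Step 1: Grow cells in 96-well plates. Step 2: Expose to compound for 48 hours at 5 concentrations. Step 3: Interpolate endpoints linearly; if unreached, use highest concentration. At the GI50, growth is halved. TGI is the concentration that stops growth completely.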
# What was measured:
# Experiment in all cases: DTP human tumour cell line panel, 48 h
# [1] = tested on: MDA-MB-435
# [2] = tested on: DLD-1 colon
# [3] = tested on: EKVX NSCLC
# [4] = tested on: U251 CNS
# [5] = tested on: HL-60(TB) leukemia
# [6] = tested on: SF-268 CNS
# [7] = tested on: HOP-92 NSCLC
# [8] = tested on: SNB-19 CNS
# [9] = tested on: LXFL 529 NSCLC
# [10] = tested on: HCT-116 colon
# [11] = tested on: COLO 205 colon
# [12] = tested on: HT29 colon
# [13] = tested on: MOLT-4 leukemia
# [14] = tested on: SF-539 CNS
# [15] = tested on: CAKI-1 renal
# [16] = tested on: M14 melanoma
# [17] = tested on: A498 renal
# [18] = tested on: NCI/ADR-RES ovarian
# [19] = tested on: SNB-75 CNS
# [20] = tested on: SNB-78 CNS
# [21] = tested on: SK-MEL-5 melanoma
# [22] = tested on: IGROV1 ovarian
# [23] = tested on: SK-OV-3 ovarian
# [24] = tested on: OVCAR-4 ovarian
# [25] = tested on: SN12C renal
# [26] = tested on: LOX IMVI melanoma
# [27] = tested on: HOP-62 NSCLC
# [28] = tested on: 786-0 renal
# [29] = tested on: HCT-15 colon
# [30] = tested on: SF-295 CNS
# [31] = tested on: MALME-3M melanoma
# [32] = tested on: HS 578T breast
# [33] = tested on: UO-31 renal
# [34] = tested on: BT-549 breast
# [35] = tested on: SK-MEL-2 melanoma
# [36] = tested on: DMS 273 small cell lung
# [37] = tested on: MDA-MB-231 breast
# [38] = tested on: KM12 colon
# [39] = tested on: T-47D breast
# [40] = tested on: RPMI-8226 leukemia
# [41] = tested on: MCF7 breast
# [42] = tested on: XF 498 CNS
# [43] = tested on: HCC-2998 colon
# [44] = tested on: UACC-257 melanoma
# [45] = tested on: SR leukemia
# [46] = tested on: K-562 leukemia
# [47] = tested on: KM20L2 colon
# [48] = tested on: ACHN renal
# [49] = tested on: DU-145 prostate
# [50] = tested on: PC-3 prostate
# [51] = tested on: SW-620 colon
# [52] = tested on: NCI-H460 lung
# [53] = tested on: RXF-631 renal
# [54] = tested on: OVCAR-3 ovarian
# [55] = tested on: OVCAR-8 ovarian
# [56] = tested on: HOP-18 NSCLC
# [57] = tested on: CCRF-CEM leukemia
# [58] = tested on: DMS 114 small cell lung
# [59] = tested on: UACC-62 melanoma
# [60] = tested on: NCI-H522 lung
# [61] = tested on: A549 NSCLC
# [62] = tested on: NCI-H23 lung
# [63] = tested on: OVCAR-5 ovarian
# [64] = tested on: TK-10 renal
# [65] = tested on: NCI-H226 lung
# [66] = tested on: RXF 393 renal
# [67] = tested on: M19-MEL melanoma
# [68] = tested on: SK-MEL-28 melanoma
smiles,measurement,setting,value
Nc1[nH]c(=O)nc2c1cnn2Cc1ccccc1,GI50,[1],> 100 µM
same,TGI,[1],> 100 µM
same,TGI,[2],> 100 µM
same,TGI,[3],> 100 µM
same,TGI,[4],2.73 µM
same,TGI,[5],> 100 µM
same,TGI,[6],> 100 µM
same,TGI,[7],> 100 µM
same,TGI,[8],> 100 µM
same,TGI,[9],> 100 µM
same,TGI,[10],> 100 µM
same,TGI,[11],> 100 µM
same,TGI,[12],> 100 µM
same,TGI,[13],> 100 µM
same,TGI,[14],> 100 µM
same,TGI,[15],> 100 µM
same,TGI,[16],> 100 µM
same,TGI,[17],> 100 µM
same,GI50,[18],> 100 µM
same,TGI,[18],> 100 µM
same,TGI,[19],> 100 µM
same,TGI,[20],3.08 µM
same,TGI,[21],> 100 µM
same,TGI,[22],> 100 µM
same,GI50,[23],> 100 µM
same,TGI,[23],> 100 µM
same,TGI,[24],> 100 µM
same,TGI,[25],> 100 µM
same,TGI,[26],> 100 µM
same,GI50,[27],> 100 µM
same,TGI,[27],> 100 µM
same,GI50,[28],> 100 µM
same,TGI,[28],> 100 µM
same,TGI,[29],> 100 µM
same,TGI,[30],> 100 µM
same,TGI,[31],> 100 µM
same,GI50,[32],> 100 µM
same,TGI,[32],> 100 µM
same,TGI,[33],> 100 µM
same,GI50,[34],36.2 µM
same,TGI,[34],> 100 µM
same,TGI,[35],> 100 µM
same,TGI,[36],> 100 µM
same,GI50,[37],> 100 µM
same,TGI,[37],> 100 µM
same,TGI,[38],> 100 µM
same,GI50,[39],> 100 µM
same,TGI,[39],> 100 µM
same,TGI,[40],> 100 µM
same,GI50,[41],> 100 µM
same,TGI,[41],> 100 µM
same,TGI,[42],> 100 µM
same,GI50,[43],> 100 µM
same,TGI,[43],> 100 µM
same,TGI,[44],> 100 µM
same,TGI,[45],> 100 µM
same,TGI,[46],> 100 µM
same,TGI,[47],3.05 µM
same,TGI,[48],> 100 µM
same,GI50,[49],> 100 µM
same,TGI,[49],> 100 µM
same,GI50,[50],> 100 µM
same,TGI,[50],> 100 µM
same,TGI,[51],> 100 µM
same,TGI,[52],> 100 µM
same,TGI,[53],> 100 µM
same,GI50,[54],> 100 µM
same,TGI,[54],> 100 µM
same,TGI,[55],> 100 µM
same,TGI,[56],> 100 µM
same,TGI,[57],> 100 µM
same,TGI,[58],> 100 µM
same,GI50,[59],> 100 µM
same,TGI,[59],> 100 µM
same,GI50,[60],> 100 µM
same,TGI,[60],> 100 µM
same,TGI,[61],> 100 µM
O=C1C(c2ccccc2)=C(c2ccccc2)C(c2ccc(-c3ccc(C4=C(c5ccccc5)C(=O)C(c5ccccc5)=C4c4ccccc4)cc3)cc2)=C1c1ccccc1,TGI,[2],> 100 µM
same,TGI,[62],> 100 µM
same,TGI,[3],> 100 µM
same,TGI,[4],> 100 µM
same,TGI,[5],> 100 µM
same,TGI,[6],> 100 µM
same,TGI,[7],> 100 µM
same,TGI,[8],> 100 µM
same,TGI,[9],> 100 µM
same,TGI,[10],> 100 µM
same,TGI,[11],> 100 µM
same,TGI,[12],> 100 µM
same,TGI,[13],> 100 µM
same,TGI,[14],> 100 µM
same,TGI,[15],> 100 µM
same,TGI,[16],> 100 µM
same,TGI,[17],> 100 µM
same,TGI,[19],> 100 µM
same,TGI,[21],> 100 µM
same,TGI,[22],> 100 µM
same,TGI,[23],> 100 µM
same,TGI,[24],> 100 µM
same,TGI,[25],> 100 µM
same,TGI,[26],> 100 µM
same,TGI,[27],> 100 µM
same,TGI,[28],> 100 µM
same,TGI,[29],> 100 µM
same,TGI,[30],> 100 µM
same,TGI,[31],> 100 µM
same,TGI,[33],> 100 µM
same,TGI,[35],> 100 µM
same,TGI,[63],> 100 µM
same,TGI,[36],> 100 µM
same,TGI,[64],> 100 µM
same,TGI,[38],> 100 µM
same,TGI,[40],> 100 µM
same,TGI,[65],> 100 µM
same,TGI,[42],> 100 µM
same,TGI,[44],> 100 µM
same,TGI,[45],> 100 µM
same,TGI,[46],> 100 µM
same,TGI,[47],> 100 µM
same,TGI,[66],> 100 µM
same,TGI,[51],> 100 µM
same,TGI,[52],> 100 µM
same,TGI,[53],> 100 µM
same,TGI,[67],> 100 µM
same,TGI,[54],> 100 µM
same,TGI,[55],> 100 µM
same,TGI,[56],> 100 µM
same,TGI,[57],> 100 µM
same,TGI,[58],> 100 µM
same,TGI,[59],> 100 µM
same,TGI,[60],> 100 µM
same,TGI,[61],> 100 µM
Cc1ccc(NC(=O)CC/C(CC(=O)C(C)(C)C)=N/Nc2nnc(C)n2N)cc1C,TGI,[62],> 100 µM
same,TGI,[3],> 100 µM
same,TGI,[4],> 100 µM
same,TGI,[5],> 100 µM
same,TGI,[6],> 100 µM
same,TGI,[7],> 100 µM
same,TGI,[8],> 100 µM
same,TGI,[9],> 100 µM
same,TGI,[10],> 100 µM
same,TGI,[11],> 100 µM
same,TGI,[12],> 100 µM
same,TGI,[13],> 100 µM
same,TGI,[14],> 100 µM
same,TGI,[15],> 100 µM
same,TGI,[16],> 100 µM
same,TGI,[17],> 100 µM
same,TGI,[19],> 100 µM
same,TGI,[20],> 100 µM
same,TGI,[21],> 100 µM
same,TGI,[22],> 100 µM
same,TGI,[23],> 100 µM
same,TGI,[25],> 100 µM
same,TGI,[26],> 100 µM
same,TGI,[27],> 100 µM
same,TGI,[28],> 100 µM
same,TGI,[29],> 100 µM
same,TGI,[30],> 100 µM
same,TGI,[31],> 100 µM
same,TGI,[33],> 100 µM
same,TGI,[35],> 100 µM
same,TGI,[63],> 100 µM
same,TGI,[36],> 100 µM
same,TGI,[68],> 100 µM
same,TGI,[64],> 100 µM
same,TGI,[38],> 100 µM
same,TGI,[40],> 100 µM
same,TGI,[65],> 100 µM
same,TGI,[42],> 100 µM
same,TGI,[43],> 100 µM
same,TGI,[44],> 100 µM
same,TGI,[45],> 100 µM
same,TGI,[46],> 100 µM
same,TGI,[47],> 100 µM
same,TGI,[48],> 100 µM
same,TGI,[66],> 100 µM
same,TGI,[51],> 100 µM
same,TGI,[52],> 100 µM
same,TGI,[53],> 100 µM
same,TGI,[67],> 100 µM
same,TGI,[54],> 100 µM
same,TGI,[55],> 100 µM
same,TGI,[56],> 100 µM
same,TGI,[57],> 100 µM
same,TGI,[58],> 100 µM
same,TGI,[59],> 100 µM
same,TGI,[60],> 100 µM
same,TGI,[61],> 100 µM
C[Si]1(C)C(c2ccccc2)=CC2C(c3ccccc3)(c3ccccc3)OC21c1ccccc1 (stereo unspecified),TGI,[2],> 100 µM
same,TGI,[62],> 100 µM
same,TGI,[3],> 100 µM
same,TGI,[4],> 100 µM
same,TGI,[5],> 100 µM
same,TGI,[6],> 100 µM
same,TGI,[7],> 100 µM
same,TGI,[8],> 100 µM
same,TGI,[9],> 100 µM
same,TGI,[10],> 100 µM
same,TGI,[11],> 100 µM
same,TGI,[12],> 100 µM
same,TGI,[13],> 100 µM
same,TGI,[14],> 100 µM
same,TGI,[15],> 100 µM
same,TGI,[16],> 100 µM
same,TGI,[17],> 100 µM
same,TGI,[19],> 100 µM
same,TGI,[21],> 100 µM
same,TGI,[22],> 100 µM
same,TGI,[23],> 100 µM
same,TGI,[24],> 100 µM
same,TGI,[25],> 100 µM
same,TGI,[26],> 100 µM
same,TGI,[27],> 100 µM
same,TGI,[28],> 100 µM
same,TGI,[29],> 100 µM
same,TGI,[30],> 100 µM
same,TGI,[31],> 100 µM
same,TGI,[33],> 100 µM
same,TGI,[35],> 100 µM
same,TGI,[63],> 100 µM
same,TGI,[36],> 100 µM
same,TGI,[68],> 100 µM
same,TGI,[64],> 100 µM
same,TGI,[38],> 100 µM
same,TGI,[40],> 100 µM
same,TGI,[65],> 100 µM
same,TGI,[42],> 100 µM
same,TGI,[43],> 100 µM
same,TGI,[44],> 100 µM
same,TGI,[45],> 100 µM
same,TGI,[46],> 100 µM
same,TGI,[47],> 100 µM
same,TGI,[48],> 100 µM
same,TGI,[66],> 100 µM
same,TGI,[51],> 100 µM
same,TGI,[52],> 100 µM
same,TGI,[53],> 100 µM
same,TGI,[67],> 100 µM
same,TGI,[54],> 100 µM
same,TGI,[56],> 100 µM
same,TGI,[57],> 100 µM
same,TGI,[58],> 100 µM
same,TGI,[59],> 100 µM
same,TGI,[60],> 100 µM
same,TGI,[61],> 100 µM
